Source: patent US20250275537A1, “CARBOXAMIDE APYRASE INHIBITORS” (Texas Crop Science, Inc., priority 2024, published 2025)

Key:
[1] = test system: Brown Rust (Puccinia recondita) on wheat; test: Greenhouse crop test: Brown Rust on wheat in combination with commercial fungicides (Method 3); type: in vivo; settings: evaluated at fourteen days
Experimental: In this method, exemplary compounds were evaluated for their ability to control Brown Rust (Puccinia recondita) on wheat, in a controlled greenhouse environment in combination with one of four fungicides, Amistar, Imtrex, Proline or Balaya. In these studies, JB Diego wheat plants were used. Seeds were sown in 9 cm diameter pots to a depth of 1 to 2 cm using Petersfield potting compost (75% medium grade peat, 12% screened sterilized loam, 3% medium grade vermiculite, 10% grit (5 mm screened, lime free), 1.5 kg PG mix per m3, lime to pH5.5-6.0 and wetting agent (Vitax Ultrawet 200 ml per m3) and germinated/grown at 23 C under a 16 h day/8 h night light regime. Plants were treated two to three weeks after sowing when they were at the BBCH 11 growth stage (first pair of true leaves (unifoliate) unfolded). Plants were inoculated with the Puccinia triticina (Brown rust on wheat plants) 24 hours after treatment. A track sprayer was used to treat the plants with the mixture of commercial fungicide and test compound using a water volume of 200 L/ha. […] Each plant was evaluated at fourteen days (once the disease symptoms were fully expressed) for % control of the disease. […] Also, each commercial fungicide was tested on its own as a part of each treatment, this being benchmark against which the experimental compounds were evaluated. […]

[2] = test system: apyrase; test: Apyrase inhibition assay (Method 1); type: biochemical; settings: inhibitor conc at 1 mM stock, 10 μl per well; 1 hr room temperature; rounded average of at least two assay results
Experimental: Apyrase inhibitors useful as enhancers of pesticidal activity are assessed using an in vitro assay. The method of Windsor, Bio Techniques 33:1024-1030 (November 2002) was used as follows
96 well plates were used for the assay: (Greiner bio-one: REF-655901-96 well, PS, F-bottom, Clear, Non-binding)
• Reaction Buffer: 60 mM Hepes, 3 mM MgCl2, 3 mM CaCl2 and 3 mM ATP (pH 6.5) • Development Buffer A: 2% aqueous ammonium molybdate • Development Buffer B: 11% ascorbic acid in 37.5% TCA in water • Stop buffer C: 2% trisodium citrate in 2% acetic acid solution in water • Add 100 μl of reaction buffer to each well. • Add 10 μl of DMSO (control) or inhibitor/compound or compounds such as N1915 or orthovanadate to each well. (use inhibitor conc at 1 mM; orthovanadate at 2 mM and N1915 at 1 mM) • Add 10 μl of apyrase (concentration based on optimization —Dilute 1 U/μl enzyme to different concentrations such as 0.1U, 0.05U, 0.0025, 0.001U, 0.0005U—to find a good range) • Incubate plate at room temperature for 1 hr • Mix development buffer A and B in the ratio of 1:1.5 (just before use). • Add 50 ul of A:B mix in each well (incubate for 2 mins) • Add 50 ul of C in each well • Measure/Read Absorbance of plate @630 nm
Inhibitory data for the apyrase assay described above are provided for selected compounds in Table 3. In Table 3, D indicates inhibition of <10%.
With reference to Table 3, percent inhibition of apyrase is reported as the rounded average of at least two assay results.

[3] = test system: Amaranthus retroflexus (pigweed); test: Enhancement of herbicide activity: pre-emergence Amaranthus kill with metribuzin (Method 4); type: in vivo; settings: enhancer at 100 g/ha; for enhancement of metribuzin herbicidal activity: at seven and fourteen days
Description: Small amounts of acetone were used to aid solubility. The pots were watered immediately after sowing and treatment and then allowed to stand in a glasshouse. Assessment of kill was made seven and fourteen days after treatment. The test included four replicates for each treatment and the control.

[4] = test system: strain of Zymoseptoria tritici with a reduced susceptibility to SDHI fungicides; test: In vitro assessment of combination activity with fungicides (Method 2), Z. tritici SDHI-reduced-susceptibility strain; type: cell-based; settings: any fungicide (azoxystrobin, fluxapyroxad, desthio prothioconazole)
Experimental: (§1) Selected compounds are assessed in combination with fungicides against a range of commercially important plant pathogenic fungi.
(§2) The test is conducted as follows. A fungicide is applied to a fungal plant pathogen at a rate slightly below that at which it gave any control, in combination with a suitable dose of the test compound. The test compound is recorded as active if control of the pathogen is observed.
(§3) In more detail, the test is conducted as follows. For each combination of fungicide, pathogen and test compound, the following wells are used. Well 1 contains a fungal pathogen growing on agar, and a fungicide at a rate just below that at which it gives any control of the pathogen. Well 2 is the same as Well 1, except that the test compound is also added at Rate 1. Well 3 is the same as Well 2, except that the test compound is added at Rate 2, where Rate 2 was higher than Rate 1. Finally, as a benchmark. Well 4 is the same as Well 1, except that it contains the fungicide at a higher rate, at which it gives partial control of the pathogen. Each of the Wells 1 to 4 are run in duplicate, giving a total of 8 wells for each combination of fungicide, pathogen and test compound. For each well, after a suitable period of incubation, a visual assessment of the % control of the pathogen by the fungicide is made. […]

[5] = test system: strain of Zymoseptoria tritici with a reduced susceptibility to strobilurin fungicides; test: In vitro assessment of combination activity with fungicides (Method 2), Z. tritici strobilurin-reduced-susceptibility strain; type: cell-based; settings: any fungicide (azoxystrobin, fluxapyroxad, desthio prothioconazole)
Experimental: as §1, §2, §3

[6] = test system: Microdochium nivale; test: In vitro assessment of combination activity with fungicides (Method 2), Microdochium nivale; type: cell-based; settings: in combination with azoxystrobin; visual % control on agar
Experimental: as §1, §2, §3

[7] = Assessed 7 DAT, metribuzin rate 50 g/ha
[8] = Assessed 7 DAT, metribuzin rate 100 g/ha
[9] = Assessed 7 DAT, metribuzin rate 200 g/ha
[10] = Assessed 14 DAT, metribuzin rate 50 g/ha
[11] = Assessed 14 DAT, metribuzin rate 100 g/ha
[12] = Assessed 14 DAT, metribuzin rate 200 g/ha

Compound | additional Brown Rust control in combination with Balaya over Balaya alone ([1]; Balaya 0.25 L/ha) | % Inhibition of Apyrase [2] | additional Brown Rust disease control in combination with Amistar over Amistar alone ([1]; Amistar 0.04 L/ha) | Pre-Emergence Amaranthus Kill Percentage [3, 7] | Pre-Emergence Amaranthus Kill Percentage [3, 8] | Pre-Emergence Amaranthus Kill Percentage [3, 9] | Pre-Emergence Amaranthus Kill Percentage [3, 10] | Pre-Emergence Amaranthus Kill Percentage [3, 11] | Pre-Emergence Amaranthus Kill Percentage [3, 12] | enhancement of metribuzin herbicidal activity [3] | enhancement of fungicide activity (combination activity) [4] | enhancement of fungicide activity (combination activity) [5] | enhancement of fungicide activity (combination activity) [6]
O=C(Nc1ccccc1)c1ccc(C(=O)Nc2ccccc2)cc1 [Compound I-3, N^1,N^4-diphenylterephthalamide] | measurable additional Brown Rust control | A (A indicates inhibition above 30%) |  |  |  |  |  |  |  |  |  |  | 
O=C(c1ccc(C(=O)N2CCc3ccccc32)cc1)N1CCc2ccccc21 [Compound I-66, 1,4-phenylenebis(indolin-1-ylmethanone)] |  | A (A indicates inhibition above 30%) | greater than 20% |  |  |  |  |  |  |  |  |  | 
O=C(Nc1ccccc1Cl)c1ccccc1C(=O)Nc1ccccc1Cl [Compound I-14, N^1,N^2-bis(2-chloropheny)phthalamide] |  | A (A indicates inhibition above 30%) |  | 21.3% | 93.9% | 98.0% | 32.7% | 94.0% | 100.0% | significant enhancement |  |  | 
O=C(Nc1cccc([N+](=O)[O-])c1)c1cccc(S(=O)(=O)Nc2ccc(Br)cc2)c1 [Roux Compound 13] |  |  |  |  |  |  |  |  |  |  | failing to enhance activity of any fungicide | failing to enhance activity of any fungicide | enhancing the activity of azoxystrobin
COCc1cc(F)ccc1NC(=O)c1cccc(C(=O)Nc2ccc(F)cc2COC)c1 [Compound I-63, N^1,N^3-bis(4-fluoro-2-(methoxymethyl)phenyl)isophthalamide] |  | A (A indicates inhibition above 30%) |  | 2.0% | 34.0% | 96.3% | 4.1% | 34.0% | 98.2% | significant enhancement |  |  | 
